Measurements taken from patent US10159687B2, “Prodrugs of vitamin K” (KAPPA BIOSCIENCE AS, priority 2012, dated 2018).

Key:
[1] = Light stability in MCT oil (HPLC % area); assay type: physicochemical; conditions: for Purity after 1 h (%) / MK7 content in the sample after 1 h: light exposure 1 h; for Purity after 1 d (%) / MK7 content in the sample after 1 d: light exposure 1 d; for Purity after 3 d (%) / MK7 content in the sample after 3 d: light exposure 3 d; for MK7 content in the sample after 3 d: in %
Method: The light stability of MK-7 was compared certain example compounds as hereinbefore described. Compounds were dissolved separately in ethyl acetate or MCT oil, transferred to glass vial (clear glass) and placed on the bench in a well lit laboratory (ordinary room lighting). […]
(§1) The samples were analyzed by HPLC using aHPLC_KB_001, with the HPLC conditions detailed below.
(§2) HPLC-DAD high pressure system: Agilent, LC system 1100 series
(§3) Analytical column: Supelcosil C-18, 4.6×250 mm, 5 µm
(§4) Column temperature: 40° C.
(§5) Eluent system: 50% Solvent C: MeOH/Water with 0.1% v/v acetic acid (95/5 v/v) 50% Solvent D: Isopropanol
(§6) The content of MK-7 and the MK-7 derivative in the samples have been quantified as % area of the total peak area in the chromatogram.

[2] = Light stability in ethyl acetate (HPLC % area); assay type: physicochemical; conditions: for After 19 hrs % (content as % area of the total peak area) / MK-7 content in the sample after 19 hrs / Initial % (content as % area of the total peak area): in ethyl acetate; for After 19 hrs % (content as % area of the total peak area): after 19 hrs of light exposure (ordinary room lighting); for MK-7 content in the sample after 19 hrs: after 19 hrs of light exposure, MK-7 formed from the derivative; for Initial % (content as % area of the total peak area): clear glass vial, initial time point; for light stability compared with the diacetylated compound: light exposure, comparison in words
Method: The light stability of MK-7 was compared certain example compounds as hereinbefore described. Compounds were dissolved separately in ethyl acetate or MCT oil, transferred to glass vial (clear glass) and placed on the bench in a well lit laboratory (ordinary room lighting). The samples were analyzed after 19 hours of light exposure or more.
as §1, §2, §3, §4, §5, §6

[3] = Rat study: MK-7 in plasma after oral gavage in sunflower oil; assay type: in vivo, male Sprague Dawley Rats; conditions: rats
Method: Brief Procedure: Rats: Male Rats aged 6 to 8 weeks and weighing around 180 to 225 g. Animals were fasted overnight with free access to water. Animals were administered test substance by oral gavage with a dose of 100 μg/kg body weight (in recommended formulation and dose volume). Blood samples (150-200 μl) were collected at various time points during the next 48 hours post dose. To determine the bioavailability of different formulations containing MK-7 in male e Sprague Dawley Rats through gavage. Formulations were both dissolved in sunflower oil. Approximately 0.4 ml/animal (depending on the weight of the animal) via oral gavage (100 μg/kg body weight). There were 6 animals per formulation. Blood samples were collected from the tail vein of each animal and transferred into lithium heparin tubes at 2 and 12 hours post dose. Quantification of analyte in plasma was determined by LC-MS-MS analysis: Analyte: MK-7 in plasma. The data are mean of four measurements (low and high values are not included).

Row | After 19 hrs % (content as % area of the total peak area) [2] [%] | MK-7 content in the sample after 19 hrs [2] [%] | Initial % (content as % area of the total peak area) [2] [%] | MK7 content in the sample after 1 h [1] [%] | MK7 content in the sample after 1 d [1] [%] | MK7 content in the sample after 3 d [1] | MK7 content in the sample at start ([1]; start) [%] | degradation after light exposure ([2]; in solution, after 19 hours of light exposure (below Table 1, ethyl acetate)) | degradation after light exposure ([1]; after 24 hours of light exposure) | SMILES | Purity after 1 h (%) [1] [%] | Purity after 1 d (%) [1] [%] | Purity after 3 d (%) [1] [%] | Start purity from CoA (%) ([1]; start) | light stability compared with the diacetylated compound [2] | serum level 12 hours after administration compared with MK-7 (in words) [3]
1 | 87.6 | 2.8 | 91.5 | 2.7 | 4.1 | 5.6 | – | – | – | CC(C)=CCC/C(C)=C/CC/C(C)=C/CC/C(C)=C/CC/C(C)=C/CC/C(C)=C/CC/C(C)=C/Cc1c(C)c(OC(=O)c2ccccc2)c2ccccc2c1O [Example 2B, 3-((2E,6E,10E,14E,18E,22E)-3,7,11,15,19,23,27-heptamethyloctacosa-2,6,10,14,18,22,26-heptaen-1-yl)-4-hydroxy-2-methylnaphthalen-1-yl benzoate] | 91.9 | 84.6 | 63.8 | 91.5 | – | –
2 | 95.4 | – | 98.5 | – | – | – | – | – | – | CC(C)=CCC/C(C)=C/CC/C(C)=C/CC/C(C)=C/CC/C(C)=C/CC/C(C)=C/CC/C(C)=C/Cc1c(C)c(OC(=O)c2ccccc2)c2ccccc2c1OC(=O)c1ccccc1 [Example 1, 2-((2E,6E,10E,14E,18E,22E)-3,7,11,15,19,23,27-heptamethyl-octacosa-2,6,10,14,18,22,26-heptaen-1-yl)-3-methylnaphthalene-1,4-diyl dibenzoate] | 98.3 | 97.3 | 92.9 | 98.5 | more stable than the diacetylated compound | –
3 | 53.7 | – | 99.4 | – | – | – | – | approximately 50% | approximately 70% | CC(C)=CCC/C(C)=C/CC/C(C)=C/CC/C(C)=C/CC/C(C)=C/CC/C(C)=C/CC/C(C)=C/CC1=C(C)C(=O)c2ccccc2C1=O [MK-7, 2-((2E,6E,10E,14E,18E,22E)-3,7,11,15,19,23,27-heptamethyloctacosa-2,6,10,14,18,22,26-heptaen-1-yl)-3-methylnaphthalene-1,4-dione, reference compound] | 97.2 | 73.5 | 32.2 | 99 | – | –

Further lines, the molecule ahead of its results:

Row | SMILES | After 19 hrs % (content as % area of the total peak area) [2] [%] | MK-7 content in the sample after 19 hrs [2] [%] | Initial % (content as % area of the total peak area) [2] [%] | MK7 content in the sample after 1 h [1] [%] | MK7 content in the sample after 1 d [1] [%] | MK7 content in the sample after 3 d [1] | MK7 content in the sample at start ([1]; start) [%] | degradation after light exposure ([2]; in solution, after 19 hours of light exposure (below Table 1, ethyl acetate)) | degradation after light exposure ([1]; after 24 hours of light exposure) | Purity after 1 h (%) [1] [%] | Purity after 1 d (%) [1] [%] | Purity after 3 d (%) [1] [%] | Start purity from CoA (%) ([1]; start) | light stability compared with the diacetylated compound [2] | serum level 12 hours after administration compared with MK-7 (in words) [3]
4 | CCC(=O)Oc1c(C/C=C(\C)CC/C=C(\C)CC/C=C(\C)CC/C=C(\C)CC/C=C(\C)CC/C=C(\C)CCC=C(C)C)c(C)c(OC(=O)[C@@H](NC(=O)OC(C)(C)C)C(C)C)c2ccccc12 [Example 10, 3-((2E,6E,10E,14E,18E,22E)-3,7,11,15,19,23,27-heptamethyloctacosa-2,6,10,14,18,22,26-heptaen-1-yl)-2-methyl-4-(propionyloxy)naphthalen-1-yl (tert-butoxycarbonyl)-L-valinate] | – | – | – | – | – | – | – | – | – | 92.7 | 92.0 | 89.0 | 93.5 | – | –
5 | CCOP(=O)(OCC)Oc1c(C)c(C/C=C(\C)CC/C=C(\C)CC/C=C(\C)CC/C=C(\C)CC/C=C(\C)CC/C=C(\C)CCC=C(C)C)c(OC(=O)CC)c2ccccc12 [Example 9, 4-((diethoxyphosphoryl)oxy)-2-((2E,6E,10E,14E,18E,22E)-3,7,11,15,19,23,27-heptamethyloctacosa-2,6,10,14,18,22,26-heptaen-1-yl)-3-methylnaphthalen-1-yl propionate] | – | – | – | – | – | – | – | – | – | 90.1 | 89.0 | 84.2 | 90.7 | – | –
6 | CCC(=O)Oc1c(C/C=C(\C)CC/C=C(\C)CC/C=C(\C)CC/C=C(\C)CC/C=C(\C)CC/C=C(\C)CCC=C(C)C)c(C)c(OC(=O)CCNC(=O)OC(C)(C)C)c2ccccc12 [Example 12, 3-((2E,6E,10E,14E,18E,22E)-3,7,11,15,19,23,27-heptamethyloctacosa-2,6,10,14,18,22,26-heptaen-1-yl)-2-methyl-4-(propionyloxy)naphthalen-1-yl 3-((tert-butoxycarbonyl)amino)propanoate] | – | – | – | – | – | – | – | – | – | 91.9 | 89.4 | 84.4 | 92 | – | –
7 | CC(C)=CCC/C(C)=C/CC/C(C)=C/CC/C(C)=C/CC/C(C)=C/CC/C(C)=C/CC/C(C)=C/Cc1c(C)c(O)c2ccccc2c1OC(=O)c1ccccc1 [Example 2A, 2-((2E,6E,10E,14E,18E,22E)-3,7,11,15,19,23,27-heptamethyloctacosa-2,6,10,14,18,22,26-heptaen-1-yl)-4-hydroxy-3-methylnaphthalen-1-yl benzoate] | 71.2 | 23.4 | 93.3 | 13.1 | 18.0 | 23.65 | 4 | – | – | 83.9 | 72.5 | 53.3 | 93.3 | – | –
8 | CC(C)=CCC/C(C)=C/CC/C(C)=C/CC/C(C)=C/CC/C(C)=C/CC/C(C)=C/CC/C(C)=C/Cc1c(C)c(OC(=O)c2ccc(C(F)(F)F)cc2)c2ccccc2c1OC(=O)c1ccc(C(F)(F)F)cc1 [Example 13, 2-((2E,6E,10E,14E,18E,22E)-3,7,11,15,19,23,27-heptamethyloctacosa-2,6,10,14,18,22,26-heptaen-1-yl)-3-methylnaphthalene-1,4-diyl bis(4-(trifluoromethyl)benzoate)] | – | – | – | – | – | – | – | – | – | 83.6 | 84.8 | 79.6 | 90.2 | – | –
9 | CCC(=O)Oc1c(C)c(C/C=C(\C)CC/C=C(\C)CC/C=C(\C)CC/C=C(\C)CC/C=C(\C)CC/C=C(\C)CCC=C(C)C)c(OC(=O)CC)c2ccccc12 [Example 7, 2-((2E,6E,10E,14E,18E,22E)-3,7,11,15,19,23,27-heptamethyloctacosa-2,6,10,14,18,22,26-heptaen-1-yl)-3-methylnaphthalene-1,4-diyl dipropionate] | 97.7 | – | 98.5 | – | – | – | – | – | – | 98.0 | 96.7 | 93.8 | 98.5 | more stable than the diacetylated compound | the same
10 | CCOP(=O)(OC/C=C(\C)CC/C=C(\C)CC/C=C(\C)CC/C=C(\C)CC/C=C(\C)CC/C=C(\C)CCC=C(C)C)Oc1c(CC)c(C)c(OC(=O)c2ccccc2)c2ccccc12 (stereo not shown) [Example 4, 4-((ethoxy(((2E,6E,10E,14E,18E,22E)-3,7,11,15,19,23,27-heptamethyl-octacosa-2,6,10,14,18,22,26-heptaen-1-yl)oxy)phosphoryl)oxy)-3-ethyl-2-methylnaphthalen-1-yl benzoate] | – | – | – | – | – | – | – | – | – | 86.4 | 84.4 | 81.5 | 86.7 | – | –
